The values that follow come from ChEMBL document CHEMBL1212937, “Effect of synthetic peptides belonging to E2 envelope protein of GB virus C on human immunodeficiency virus type 1 infection” (J Med Chem, 2010).

The subject of test [1] is Human immunodeficiency virus 1. The test is described as follows: Antiviral activity against R5 tropic HIV1 BAL infected in human PBMC cells assessed as concentration at which p24 antigen produced after 7 days by ELISA. Format: functional. A general note: In an ELISA, binding on a coated surface is turned into a signal by an enzyme label.
Test [2] deals with Human immunodeficiency virus 1. Kind of test: Antiviral activity against R5 tropic HIV1 HXB2 infected in human TZM-bl cells assessed as inhibition of virus-induced cytopathic effect. Type of test: functional, organism-based. As to conditions: for IC50: Human immunodeficiency virus 1, HXB2, TZM-bl. A general note: Protection from cytopathic effect is a common read-out in antiviral testing.

The test system of test [3] is Human immunodeficiency virus 1. Kind of test: Antiviral activity against R5 tropic HIV1 BAL infected in human TZM-bl cells assessed as inhibition of virus-induced cytopathic effect. Format: functional, organism-based. As to conditions: for IC50: Human immunodeficiency virus 1, BAL.
The subject of test [4] is Human immunodeficiency virus 1. The test is described as follows: Antiviral activity against R5X4 tropic HIV1 69/7 infected in human TZM-bl cells assessed as inhibition of virus-induced cytopathic effect. Type of test: functional, organism-based. As to conditions: for IC50: Human immunodeficiency virus 1, 69/7, TZM-bl.
For test [5], the system named is Human immunodeficiency virus 1. Kind of test: Antiviral activity against R5 tropic HIV1 HXB2 infected in human PBMC cells assessed as concentration at which p24 antigen produced after 7 days by ELISA. Type of test: functional.
A further test deals with HeLa. The test is described as follows: (§1) Inhibition of HIV1 gp41-induced cell-cell fusion between viral envolop expressing human HeLa cells to CD4 receptor expressing TZM-bl cells. Type of test: cell-based. As to conditions: Human immunodeficiency virus 1.
A short description of test [6]: as §1. Format: cell-based, Human immunodeficiency virus 1.
Test [7] in a line: Inhibition of HIV1 gp41 fusion by isothermal titration. Also noted: species or system Human immunodeficiency virus 1. Background: Isothermal titration calorimetry measures the heat released or taken up as one component is titrated into another.
Test [8] concerns Human immunodeficiency virus 1. Kind of test: Inhibition of HIV1 gp41 fusion peptide at compound to fusion peptide ratio of 5 by fluorimetry.
Test [9] can be described thus: Inhibition of HIV1 gp41 fusion by surface plasmon resonance. Details: species or system Human immunodeficiency virus 1.

Peptide text beside a SMILES is read from it.

The inhibition is the share of the control response that was lost under treatment. As a reminder, the IC50 is the point on the concentration scale where inhibition reaches its midpoint. Turning to H-SWFASTGGRDSKIDVWSL-OH, the Activity in test [1] was determined as 7.8 µM; in test [5], 62.5 µM. The inhibition entry in test [2], in test [3] and in [4] was “Dose-dependent effect” in each case. Besides, the IC50 stood at 237 µM in test [2], 411 µM in test [3] and 119 µM in [4].

As to H-WVNQLAVLGLPAVDAAVA-OH, the Activity amounted to 15.6 µM in test [1] and 7.8 µM in test [5]. The inhibition entry (in test [2]; in [3]; in the test with HeLa; in test [4]) was “Dose-dependent effect” in each case. The IC50 was found to be 94.7 µM in test [3] and 333 µM in test [6].

H-LQEVDAGNFIPPPRWLLL-OH: the figures for the Activity in [1] and in [5] were 15.6 µM and 7.8 µM, respectively. The inhibition result (in test [2]; in test [3]; with HeLa; in test [4]) was “Dose-dependent effect” in each case. For the same molecule, the IC50 in [2] was 37.5 µM; in test [3], 295 µM; in [6], 687 µM; in test [4] it was 60.8 µM.

One may read the Kd as the free concentration of one partner at which half of the binding sites on the other are occupied at equilibrium, for simple one-to-one binding. High values mean weaker binding, low ones tighter binding. Consider H-SDRDTVVELSEWGVPCAT-OH, for which the Activity was 62.5 µM in test [1] and 31.2 µM in test [5]. Moreover, the inhibition result in [2] is “Dose-dependent effect”; in test [3] it was “Dose-dependent effect”; in the test on HeLa, “Dose-dependent effect”; in test [8], 59%; in test [4], “Dose-dependent effect”. The IC50 was 48.8 µM in [2], 506 µM in [3], 141 µM in test [6] and 43.7 µM in test [4]. Further, the Kd came to 63.6 µM in test [7] and 58.6 µM in test [9].

On to `CC(C)C[C@H](NC(=O)[C@H](CC(C)C)NC(=O)[C@@H](NC(=O)[C@@H](NC(=O)[C@H](CC(N)=O)NC(=O)CNC(=O)[C@H](CCCNC(=N)N)NC(=O)[C@H](CC(=O)O)NC(=O)[C@H](Cc1c[nH]c2ccccc12)NC(=O)[C@@H](NC(=O)[C@H](CCCCN)NC(=O)[C@H](CCC(=O)O)NC(=O)CNC(=O)[C@@H](N)[C@@H](C)O)C(C)C)C(C)C)[C@@H](C)O)C(=O)N[C@@H](CS)C(=O)N[C@@H](CC(=O)O)C(=O)N[C@@H](CS)C(=O)N1CCC[C@H]1C(=O)O` (H-TGEKVWDRGNVTLLCDCP-OH), for which the Activity in test [1] came to 62.5 µM; in test [5], 31.2 µM. Also, the inhibition result in [2] was “Dose-dependent effect”; in test [3] it was “Dose-dependent effect”; with HeLa, “Dose-dependent effect”; in test [8] it was 52.9%; in test [4], “Dose-dependent effect”. The IC50 stood at 162 µM in [2], 484 µM in test [3], 440 µM in test [6] and 209 µM in test [4]. Besides, the Kd in test [7] came out at 33.3 µM; in [9], 25.2 µM.

Turning to H-HGQNRWPLSCPQYVYGSV-OH, in the test with HeLa, the IC50 came out at 304 µM and the inhibition result is “Dose-dependent effect”.

For the molecule H-GRPDGFIHVQGHLQEVDA-OH, the Kd is 20 µM in test [7] and 17.6 µM in test [9]. Also, the inhibition in test [8] turned out to be 17.9%.

With `CC[C@H](C)[C@H](NC(=O)[C@H](C)NC(=O)[C@H](CCC(N)=O)NC(=O)[C@@H](CS)NC(=O)[C@H](Cc1ccccc1)NC(=O)[C@H](C)NC(=O)[C@@H]1CCCN1C(=O)[C@@H](N)CC(C)C)C(=O)NCC(=O)N[C@@H](Cc1c[nH]c2ccccc12)C(=O)NCC(=O)N[C@@H](CC(=O)O)C(=O)N1CCC[C@H]1C(=O)N[C@H](C(=O)N[C@H](C(=O)N[C@@H](Cc1cnc[nH]1)C(=O)N[C@@H](Cc1c[nH]c2ccccc12)C(=O)N[C@@H](CO)C(=O)O)[C@@H](C)O)[C@@H](C)CC`, the Activity in test [1] and in test [5] was 15.6 µM throughout. Moreover, the inhibition result (in test [2]; in test [3]; in the test with HeLa; in test [4]) was “Dose-dependent effect” each time. Further, the IC50 in test [2] was 46 µM; in test [3], 194 µM; in test [6] it was 370 µM; in [4], 71.4 µM.

With `C[C@@H]1[C@H](O)[C@@H](C)/C=C/C=C/C=C/C=C/C=C/C=C/C=C/[C@H](O[C@@H]2O[C@H](C)[C@@H](O)[C@H](N)[C@@H]2O)C[C@@H]2O[C@](O)(C[C@@H](O)C[C@@H](O)[C@H](O)CC[C@@H](O)C[C@@H](O)CC(=O)O[C@H]1C)C[C@H](O)[C@H]2C(=O)O` [AMPHOTERICIN B], the IC50 in test [2] turned out to be 0.175 µM; in [3], 0.136 µM.

In the case of `CC[C@H](C)[C@H](NC(=O)[C@H](CS)NC(=O)[C@@H](NC(=O)[C@H](C)NC(=O)[C@H](CS)NC(=O)[C@@H]1CCCN1C(=O)[C@@H](NC(=O)CNC(=O)[C@H](Cc1c[nH]c2ccccc12)NC(=O)[C@H](CCC(=O)O)NC(=O)[C@H](CO)NC(=O)[C@H](CC(C)C)NC(=O)[C@H](CCC(=O)O)NC(=O)[C@@H](N)C(C)C)C(C)C)[C@@H](C)O)C(=O)N[C@@H](CC(C)C)C(=O)N[C@@H](CC(=O)O)C(=O)N[C@@H](CCCNC(=N)N)C(=O)N[C@@H](CCCNC(=N)N)C(=O)O` (H-VELSEWGVPCATCILDRR-OH), the Activity in [1] and in [5] was 7.8 µM throughout. The inhibition result (in test [2]; in test [3]; with HeLa; in test [4]) was “Dose-dependent effect” each time. Moreover, the IC50 in [2] is 58.6 µM; in test [3], 140 µM; in test [6], 331 µM; in test [4], 20.1 µM.

For the molecule H-PITHWSHGQNRWPLSCPQ-OH, the inhibition entry with HeLa was “Dose-dependent effect”. In [6], this molecule registered an IC50 of 509 µM.

With `CC(C)C[C@H](NC(=O)[C@H](CC(=O)O)NC(=O)[C@H](CCCCN)NC(=O)[C@@H](NC(=O)[C@H](CC(C)C)NC(=O)[C@H](CCCCN)NC(=O)[C@@H]1CCCN1C(=O)CNC(=O)[C@H](C)NC(=O)CNC(=O)[C@H](CS)NC(=O)[C@H](CCCNC(=N)N)NC(=O)[C@H](Cc1cnc[nH]1)NC(=O)[C@H](Cc1ccccc1)NC(=O)[C@@H]1CCCN1C(=O)[C@H](Cc1ccccc1)NC(=O)[C@@H](N)CCCNC(=N)N)[C@H](C)O)C(=O)N[C@@H](CCC(=O)O)C(=O)O`, the inhibition result with HeLa is “Dose-dependent effect”; in test [8], 56.3%. This molecule also had an IC50 in [6] of 530 µM.

Regarding H-LVRRRSELMGRRNPVCPG-OH, the figures for the inhibition result (in the test on HeLa; in test [8]) were “Dose-dependent effect” and 46%, respectively. In addition, 538 µM corresponded to half-maximal inhibition in test [6] (IC50). The results for the Kd in test [7] and in test [9] were 39.6 µM and 22.4 µM, respectively.

Consider H-FCQAIGWGDPITHWSHGQ-OH, for which the Activity worked out at 15.6 µM in test [1] and 7.8 µM in [5]. Further, the inhibition result (in [2]; in [3]; with HeLa; in test [4]) was “Dose-dependent effect” in each case. For the same molecule, the IC50 in test [2] was determined as 70.1 µM; in [3], 126 µM; in test [6], 348 µM; in test [4], 111 µM.

`CC[C@H](C)[C@H](NC(=O)[C@H](CS)NC(=O)[C@@H](NC(=O)[C@H](C)NC(=O)[C@H](CS)NC(=O)[C@@H]1CCCN1C(=O)[C@@H](NC(=O)CNC(=O)[C@H](Cc1c[nH]c2ccccc12)NC(=O)[C@H](CCC(=O)O)NC(=O)[C@H](CO)NC(=O)[C@H](CC(C)C)NC(=O)[C@H](CCC(=O)O)NC(=O)[C@@H](NC(=O)[C@@H](NC(=O)[C@@H](NC(=O)[C@@H](N)CC(=O)O)[C@@H](C)O)C(C)C)C(C)C)C(C)C)[C@@H](C)O)C(=O)N[C@@H](CC(C)C)C(=O)O` (H-DTVVELSEWGVPCATCIL-OH): the values for the Activity in test [1] and in [5] were 31.2 µM and 7.8 µM, respectively. In addition, the inhibition entry (in [2]; in [3]; in the test with HeLa; in test [4]) was “Dose-dependent effect” throughout. The IC50 in test [2] turned out to be 39.9 µM; in test [3] it was 463 µM; in test [6] it was 429 µM; in test [4] it was 24.1 µM.
